Results published in US20230364032A1, “USE OF 2-HOBA TO TREAT ATHEROSCLEROSIS” (Vanderbilt University, priority 2020, published 2023).
Values joined by “and” are separate entries in the source; they are usually repeats but may differ in a detail not shown here. Identical values can stand only once. “Also recorded” adds a separate entry of the source.

Tests used:
[1] = system: hypercholesterolemic Ldlr−/− mice; assay: Atherosclerosis in western-diet-fed Ldlr−/− mice (Oil-Red-O proximal aorta sections and en face aorta); type: in vivo, mouse; conditions: western diet 16 weeks; for effect on atherosclerosis: hypercholesterolemic Ldlr−/− mice
Method: (§1) Ldlr^−/− and WT on C57BL/6 background mice were obtained from the Jackson Laboratory. Animal protocols were performed according to the regulations of Vanderbilt University's Institutional Animal Care and Usage Committee. Mice were maintained on chow or a Western-type diet containing 21% milk fat and 0.15% cholesterol (Teklad). Eight week old, female Ldlr^−/− mice on a chow diet were pretreated with vehicle alone (Water) or containing either 1 g/L of 4-HOBA or 1 g/L of 2-HOBA. 4-HOBA (as hydrochloride salt) was synthesized as previously described^21. 2-HOBA (as the acetate salt, CAS 1206675-01-5) was manufactured by TSI Co., Ltd. (Missoula, MT) and obtained from Metabolic Technologies, Inc., Ames, IA^24. A commercial production lot was used (Lot 16120312), and the purity of the commercial lot was verified to be >99% via HPLC and NMR spectroscopy^24. After two weeks, the mice continued to receive these treatments but were switched to a western diet for 16 weeks to induce hypercholesterolemia and atherosclerosis. Similarly, 12 week-old male Ldlr^−/− mice were pretreated with vehicle alone (water) or containing 1 g/L of 2-HOBA for two weeks and were then switched to a western diet for 16 weeks to induce hypercholesterolemia and atherosclerosis, while continuing the treatment with 2-HOBA or water alone^58, 59, 60 Based on the average weight and daily consumption of water per mouse the estimated daily dosage with 1 g/L of 2-HOBA is 200 mg/Kg. […] Eight week old, male Ldlr^−/− mice were fed a western diet for 16 weeks and were continuously treated with water containing either 2-HOBA or 4-HOBA. Urine samples were collected using metabolic cages (2 mice in one cage) during 18 h after oral gavage with either 2-HOBA or 4-HOBA (5 mg each mouse).
The extent of atherosclerosis was examined both Oil-Red-O-stained cross-sections of the proximal aorta and by en face analysis^30. Briefly, cryosections of 10-micron thickness were cut from the region of the proximal aorta starting from the end of the aortic sinus and for 300 μm distally, according to the method of Paigen et al.^62. The Oil red-O staining of 15 serial sections from the root to ascending aortic region were used to quantify the Oil red-O-positive staining area per mouse. The mean from the 15 serial sections was applied for the aortic root atherosclerotic lesion size per mouse using the KS300 imaging system (Kontron Elektronik GmbH) as described^63, 64, 65. All other stains were done using sections that were 40 to 60 μm distal of the aortic sinus. For each mouse, 4 sections were stained and quantitation was done on the entire cross section of all 4 sections. For immunofluorescence staining, 5 μm cross-sections of the proximal aorta were fixed in cold acetone (Sigma), blocked in Background Buster (Innovex), incubated with indicated primary antibodies (MDA and CD68) at 4° C. for overnight. After incubation with fluorescent labeled secondary antibodies at 37 C for 1 hour, the nucleus was counterstained with Hoechst. Images were captured with a fluorescence microscope (Olympus IX81) and SlideBook 6 (Intelligent-Image) software and quantitated using ImageJ software (NIH)^66.

[2] = 2-HOBA and 4-HOBA levels in plasma and tissues of Ldlr−/− mice (LC/MS); type: in vivo; conditions: for concentration at 16 weeks: Ldlr−/− on C57BL/6 background, mouse, plasma, oral, 1 g/L in drinking water, male Ldlr−/− mice after 16 weeks of treatment with 1 g/L of water; for levels in the aorta and heart / plasma levels of 2-HOBA versus 4-HOBA: male Ldlr−/− mice; for levels in the aorta and heart: 30 min after oral gavage; for plasma levels of 2-HOBA versus 4-HOBA: 30 min after oral gavage of 5 mg
Method: FIG. 11A-11C show the concentration of 2-HOBA or 4-HOBA was measured in plasma and tissues from Ldlr^−/− mice. A. Eight week old male Ldlr^−/− mice were fed WD for 16 weeks and were continuously treated with water containing either 2-HOBA (n=9) or 4-HOBA (n=6). Plasma was collected 30 min after oral gavage of mice with either 2-HOBA or 4-HOBA (5 mg each mouse). (Mean±SEM shown for each, p=0.388 Mann-Whitney Test.) B-C. Levels of HOBA were measured in the aorta and heart of male Ldlr^−/− mice consuming a chow diet 30 min after oral gavage of 2-HOBA or 4-HOBA (5 mg each mouse). (Mean±SEM shown for each, N.S. Student t test). The levels of 2-HOBA or 4-HOBA were measured in the plasma and tissues using LC/MS as described in the Methods.
as §1
Measurement of 2-HOBA and 4-HOBA was performed by LC/MS after derivatization with phenylisothiocyanate (PITC), and using [^2H4]-2-HOBA as an internal standard as previously described for 2-HOBA^71 (See FIG. 23). For these assays, the Waters Xevo-TQ-Smicro triple quadrupole mass spectrometer operating in positive ion multiple reaction monitoring (MRM) mode monitored the following transitions: for PITC-2-HOBA or PITC-4-HOBA, m/z 259→107@20 eV (quantifier transition) and m/z 259→153 @20 eV (qualifier transition); for PITC-[^2H4]2-HOBA m/z 263 →107@20 eV (quantifier transition), m/z 263→111 @20 eV (qualifier transition). Abundance for PITC-2-HOBA was calculated based on the ratio of peak area versus that of PITC-[^2H4]2-HOBA. Because the transition reactions for PITC-4-HOBA are less efficient than for PITC-2-HOBA, the ratio of peak areas for PITC-4-HOBA/PITC-[^2l H4]2-HOBA was multiplied by the correction factors 3.9 and 5.7 when using the m/z 107 and m/z 153 transition, respectively (See FIG. 24).

[3] = male Ldlr−/− mice, 1 g/L, compared to water

Row | SMILES | reduction of extent of proximal aortic atherosclerosis ([1]; female Ldlr−/− mice, 1 g/L in water, compared to 4-HOBA) [%] | reduction of extent of proximal aortic atherosclerosis ([1]; female Ldlr−/− mice, 1 g/L in water, compared to vehicle) | reduction of extent of aortic atherosclerosis, en face analysis ([1]; female Ldlr−/− mice, 1 g/L, compared to 4-HOBA) [%] | reduction of extent of aortic atherosclerosis, en face analysis ([1]; female Ldlr−/− mice, 1 g/L, compared to vehicle) | effect on atherosclerosis ([1]; 1 g/L) | reduction of extent of proximal aortic atherosclerosis [1, 3] [%] | reduction of extent of whole aorta atherosclerosis [1, 3] [%] | concentration at 16 weeks [2] [ng/mL] | levels in the aorta and heart [2] | plasma levels of 2-HOBA versus 4-HOBA [2]
1 | NCc1ccccc1O [2-HOBA, 2-hydroxybenzylamine] | 31.5 | 31% and 31.1% | 59.1 | 60% and 60.3% | attenuates atherosclerosis; also recorded: reduces atherosclerotic lesions | 37 | 45 | 469 ± 38 | similar | not significantly different
2 | NCc1ccc(O)cc1 [4-HOBA, 4-hydroxybenzylamine, reference compound] |  |  |  |  | not atheroprotective |  |  | 25 ± 3 | similar | not significantly different
